The structures appear in SMILES notation. “Also recorded” adds a separate entry of the source.

In test [1] the test system is Brevibacterium lactofermentum ATCC 13869. In words: Glutamic acid production by coryneform bacterium induced by addition of mecillinam. Type of test: cell-based. The settings on record: A medium, 30° C., added after 2 hours, further cultured 8 hours. The method, then:
The Brevibacterium lactofermentum ATCC 13869 strain was inoculated to the aforementioned A medium, cultured at 30° C. for 2 hours with shaking, then added with 0.01 μM to 100 μM of mecillinam, and further cultured for 8 hours with shaking. Subsequently, glutamic acid concentration in the medium was measured by using Biotech Analyzer AS210 (produced by Asahi Chemical Industry Co., Ltd.) (Table 1).

A further test has as its system PBP3. In words: Inhibition by mecillinam of binding of 14C-penicillin G to PBPs in membrane fraction (SDS-PAGE, image analyzer). Also on record: species or system Brevibacterium lactofermentum. The settings on record: mecillinam added at various concentrations before the penicillin binding reaction; membrane fraction of ATCC 13869. On the procedure: PBP is considered to be a membrane protein. A membrane fraction of a coryneform bacterium was prepared as follows. A wild strain of coryneform bacteria, Brevibacterium lactofermentum ATCC 13869 strain, was inoculated to 20 ml of A medium (containing 10 g of polypeptone, 5 g of yeast extract, 5 g of NaCl and 5 g of glucose in 1 L of water), cultured at 30° C. with shaking, and harvested when the absorption at 660 nm reached about 1.0. The cells were washed in […] sodium phosphate buffer, pH 7.0. Then, the buffer was added with glass beads and sonicated to disrupt the cells. […] Protein concentration of this membrane fraction was determined by using a protein quantification kit (produced by PIERCE, Micro BCA Protein assay kit), and found to be 4 mg/ml.
A volume of 30 μl of the prepared membrane fraction was added with 3 μl of ^14C-penicillin G (produced by Amersham) and allowed to react at 30° C. for 10 minutes. […] A sample of this fraction was subjected to SDS-PAGE using gel containing 10% of polyacrylamide, and the gel was fixed, dried and analyzed with an image analyzer BAS2000 produced by Fuji Photo Film Co., Ltd. As a result, three bands were detected at 110 kDa, 100 kDa and 60 kDa, and designated as PBP1, PBP2 and PBP3, respectively. […]

Consider `CC1(C)S[C@@H]2[C@H](/N=C/N3CCCCCC3)C(=O)N2[C@H]1C(=O)O` [mecillinam], for which the “Concentration of L-glutamic acid” value is reported as 0 mg/L in test [1] (0.1 μM added mecillinam), 0 mg/L in test [1] (1.0 μM added mecillinam), 0 mg/L in test [1] (10 μM added mecillinam) and 575 mg/L in test [1] (100 μM added mecillinam). Further, the “inhibition of binding of PBP with isotope (14C) labeled penicillin G / selectivity among PBP1, PBP2, PBP3” value in the test on PBP3 was “only PBP3 was inhibited; also recorded: selectively binds to PBP3”.

For the origin of these results see patent publication US7033802B1, “Penicillin binding protein gene and process for producing L-glutamic acid” (Ajinomoto Co., Inc., priority 1998, dated 2006).
